Measurements taken from patent publication US10167272B2, “Muscarinic agonists” (Heptares Therapeutics Limited, priority 2015, dated 2019).
Where two headings read alike, the source gives them in different places.

Experiments:
Format in all cases: cell-based
[1] = biological target: T1, human muscarinic M1 receptor (Homo sapiens, UniProt P11229); experiment: Alphascreen Surefire phospho-ERK1/2 functional assay, M1; details: phospho-ERK1/2; for EC50 / % Emax cf. ACh (M1): CHO cells stably expressing human M1; for EC50: read-out: pEC50 M1 (converted); for % Emax cf. ACh (M1) / Emax: relative to ACh; for Emax: CHO, read-out: % Emax cf. ACh (M1), CHO cells stably expressing human M1
T1 sequence (P11229 1-460): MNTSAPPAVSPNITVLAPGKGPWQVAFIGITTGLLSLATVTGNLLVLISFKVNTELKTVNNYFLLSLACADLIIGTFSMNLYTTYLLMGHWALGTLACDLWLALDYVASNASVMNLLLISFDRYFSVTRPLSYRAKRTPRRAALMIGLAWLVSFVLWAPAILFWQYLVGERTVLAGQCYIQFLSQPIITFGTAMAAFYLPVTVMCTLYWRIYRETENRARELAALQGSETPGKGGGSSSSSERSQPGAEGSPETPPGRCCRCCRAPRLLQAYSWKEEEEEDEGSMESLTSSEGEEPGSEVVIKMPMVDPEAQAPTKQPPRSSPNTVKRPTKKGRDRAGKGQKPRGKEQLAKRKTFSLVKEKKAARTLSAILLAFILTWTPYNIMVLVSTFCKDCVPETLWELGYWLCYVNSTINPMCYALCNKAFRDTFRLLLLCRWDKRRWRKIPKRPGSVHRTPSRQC
Protocol: (§1) ERK1/2 phosphorylation is a downstream consequence of both Gq/11 and Gi/o protein coupled receptor activation, making it highly suitable for the assessment of M1, M3 (Gq/11 coupled) and M2, M4 receptors (Gi/o coupled), rather than using different assay formats for different receptor subtypes. CHO cells stably expressing the human muscarinic M1, M2, M3 or M4 receptor were plated (25K/well) onto 96-well tissue culture plates in MEM-alpha+10% dialysed FBS. Once adhered, cells were serum-starved overnight. Agonist stimulation was performed by the addition of 5 μL agonist to the cells for 5 min (37° C.). Media was removed and 50 μL of lysis buffer added. After 15 min, a 4 μL sample was transferred to 384-well plate and 7 μL of detection mixture added.

[2] = biological target: T2, human muscarinic M2 receptor (Homo sapiens, UniProt P08172); experiment: Alphascreen Surefire phospho-ERK1/2 functional assay, M2; details: for EC50: CHO cells stably expressing human M2, read-out: pEC50 M2 (converted); for Emax: CHO, read-out: % Emax cf. ACh (M2), CHO cells stably expressing human M2, relative to ACh
T2 sequence (P08172 1-466): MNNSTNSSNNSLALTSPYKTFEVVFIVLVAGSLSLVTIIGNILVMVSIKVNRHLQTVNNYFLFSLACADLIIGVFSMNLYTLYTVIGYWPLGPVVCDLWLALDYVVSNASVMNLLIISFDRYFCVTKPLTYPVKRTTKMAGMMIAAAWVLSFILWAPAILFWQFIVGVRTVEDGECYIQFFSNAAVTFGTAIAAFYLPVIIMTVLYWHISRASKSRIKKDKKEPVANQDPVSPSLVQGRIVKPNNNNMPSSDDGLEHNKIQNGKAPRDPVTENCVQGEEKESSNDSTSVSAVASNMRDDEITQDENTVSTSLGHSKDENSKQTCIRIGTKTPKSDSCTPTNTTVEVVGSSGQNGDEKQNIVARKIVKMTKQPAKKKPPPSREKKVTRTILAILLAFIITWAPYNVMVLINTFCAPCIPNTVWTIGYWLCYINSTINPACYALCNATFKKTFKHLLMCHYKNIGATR
Protocol: as §1

[3] = biological target: T3, human muscarinic M3 receptor (Homo sapiens, UniProt P20309); experiment: Alphascreen Surefire phospho-ERK1/2 functional assay, M3; details: phospho-ERK1/2; for EC50: CHO cells stably expressing human M3, read-out: pEC50 M3 (converted); for Emax: CHO, read-out: % Emax cf. ACh (M3), CHO cells stably expressing human M3, relative to ACh
T3 construct: expressed in transfected cells
T3 sequence (P20309 whole entry): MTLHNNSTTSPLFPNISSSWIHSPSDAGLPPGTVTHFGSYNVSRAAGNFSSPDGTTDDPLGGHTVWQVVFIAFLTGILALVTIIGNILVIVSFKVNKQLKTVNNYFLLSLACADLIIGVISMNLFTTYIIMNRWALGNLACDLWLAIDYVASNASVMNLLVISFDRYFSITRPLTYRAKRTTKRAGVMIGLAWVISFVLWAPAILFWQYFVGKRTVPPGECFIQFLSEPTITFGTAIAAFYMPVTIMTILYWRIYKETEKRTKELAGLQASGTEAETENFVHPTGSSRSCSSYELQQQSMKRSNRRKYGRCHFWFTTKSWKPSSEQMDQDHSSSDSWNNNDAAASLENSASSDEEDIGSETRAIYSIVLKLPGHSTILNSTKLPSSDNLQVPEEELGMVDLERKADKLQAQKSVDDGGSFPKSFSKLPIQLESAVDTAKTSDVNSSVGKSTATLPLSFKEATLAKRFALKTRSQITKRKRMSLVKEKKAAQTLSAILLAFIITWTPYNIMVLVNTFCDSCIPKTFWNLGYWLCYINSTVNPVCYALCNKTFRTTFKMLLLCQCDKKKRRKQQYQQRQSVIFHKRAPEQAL
Protocol: as §1

[4] = biological target: T4, human muscarinic M4 receptor (Homo sapiens, UniProt P08173); experiment: Alphascreen Surefire phospho-ERK1/2 functional assay, M4; details: for % Emax cf. ACh (M4) / Emax: relative to ACh; for Emax: CHO, read-out: % Emax cf. ACh (M4), CHO cells stably expressing human M4
T4 construct: expressed in transfected cells
T4 sequence (P08173 1-479): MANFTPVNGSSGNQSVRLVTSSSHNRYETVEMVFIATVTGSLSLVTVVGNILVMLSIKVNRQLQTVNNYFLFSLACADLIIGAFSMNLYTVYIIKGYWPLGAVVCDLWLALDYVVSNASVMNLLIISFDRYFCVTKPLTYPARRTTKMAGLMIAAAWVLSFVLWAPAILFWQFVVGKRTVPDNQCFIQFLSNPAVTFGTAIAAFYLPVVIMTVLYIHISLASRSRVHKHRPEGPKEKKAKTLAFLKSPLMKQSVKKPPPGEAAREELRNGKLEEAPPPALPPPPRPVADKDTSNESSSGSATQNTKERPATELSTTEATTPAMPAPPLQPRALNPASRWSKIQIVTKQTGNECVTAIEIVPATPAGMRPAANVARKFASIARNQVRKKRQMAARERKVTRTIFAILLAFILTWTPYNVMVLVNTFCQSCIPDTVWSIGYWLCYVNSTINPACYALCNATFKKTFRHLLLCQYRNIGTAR

[5] = CHO cells stably expressing human M4, phospho-ERK1/2, read-out: pEC50 M4 (converted)
[6] = CHO cells stably expressing human M4, phospho-ERK1/2

Compound | EC50 [1] | % Emax cf. ACh (M1) [1] | EC50 [2] | Emax [2] | EC50 [3] | Emax [3] | EC50 [4, 5] | % Emax cf. ACh (M4) [4, 6] | Emax [1] | Emax ([4]; phospho-ERK1/2) | EC50 ([4]; pEC50 M4)
CCOC(=O)N1CCC2(CC(N3CCC(N(Cc4ccccc4)C(C)=O)CC3)C2)C1 (single isomer, unassigned) [2-35 Isomer 2] | 39.8 nM |  | > 20000 nM | 21% | > 20000 nM | 34% | 126 nM |  | 85% | 72% | 
CCOC(=O)N1CCC2(CC(N3CCC(N(CC)CCF)CC3)C2)C1 (single isomer, unassigned) [2-45 Isomer 2] | 631 nM |  | > 20000 nM | 9% | > 20000 nM | 16% |  |  | 30% | 45% | 63.1 nM
CCOC(=O)N1CCC2(CC(N3CCC(N(CC)CC(F)F)CC3)C2)C1 (single isomer, unassigned) [2-46 Isomer 2] | 316 nM |  | > 20000 nM | 5% | > 20000 nM | 12% |  |  | 63% | 98% | 7.94 nM
CCOC(=O)N1CCC2(CC(N3CCC(N(CC(F)(F)F)C4CC4)CC3)C2)C1 (single isomer, unassigned) [2-48 Isomer 2] | 39.8 nM |  | 12600 nM | 68% | 7940 nM | 53% | 39.8 nM |  | 117% | 75% | 
CCOC(=O)N1CCC2(CC(N3CCC(N(CCO)CC(F)(F)F)CC3)C2)C1 (single isomer, unassigned) [2-51 Isomer 2] | 316 nM |  | > 20000 nM | 18% | > 20000 nM | 22% | 20 nM |  | 84% | 89% | 
CCOC(=O)N1CCC2(CC(N3CCC(N(CCOC)CC(F)(F)F)CC3)C2)C1 (single isomer, unassigned) [2-52 Isomer 2] | 398 nM |  | > 20000 nM | 7% | > 20000 nM | 7% | 25.1 nM |  | 93% | 106% | 
CCOC(=O)N1CCC2(CC(N3CCC(N(CC(F)(F)F)C4COC4)CC3)C2)C1 (single isomer, unassigned) [2-54 Isomer 2] | 251 nM |  | > 20000 nM | 28% | > 20000 nM | 20% | 31.6 nM |  | 106% | 98% | 
CCOC(=O)N1CCC2(CC(N3CCC(N(Cc4ccccc4)CC(F)(F)F)CC3)C2)C1 (single isomer, unassigned) [2-59 Isomer 2] | > 20000 nM |  | > 20000 nM | 9% | > 20000 nM | 14% | 79.4 nM |  | 9% | 52% | 

Second part, led by results:

EC50 [1] | % Emax cf. ACh (M1) [1] | EC50 [2] | Emax [2] | EC50 [3] | Emax [3] | EC50 [4, 5] | % Emax cf. ACh (M4) [4, 6] | Emax [1] | Emax ([4]; phospho-ERK1/2) | Compound | EC50 ([4]; pEC50 M4)
200 nM | 99% | 1260 nM | 29% | > 20000 nM | 73% | 158 nM | 84% |  |  | CCOC(=O)N1CCC2(CC(N3CCC(N(CC(C)(C)OC)C(C)=O)CC3)C2)C1 (single isomer, unassigned) [2-29 Isomer 2] | 
100 nM | 104% | 5010 nM | 42% | > 20000 nM | 26% | 79.4 nM | 96% |  |  | CCOC(=O)N1CCC2(CC(N3CCC(N(CC4(OC)CCC4)C(C)=O)CC3)C2)C1 (single isomer, unassigned) [2-30 Isomer 2] | 
2510 nM |  | > 20000 nM | 9% | > 20000 nM | 5% | 39.8 nM |  | 82% | 115% | CCOC(=O)N1CCC2(CC(N3CCC(N(OC)C(C)=O)CC3)C2)C1 (single isomer, unassigned) [2-32 Isomer 2] | 
631 nM |  | > 20000 nM | 21% | > 20000 nM | 1% | 20 nM |  | 76% | 115% | [2H]C([2H])(C)OC(=O)N1CCC2(CC(N3CCC(N(CC)C(C)=O)CC3)C2)C1 (single isomer, unassigned) [2-38 Isomer 2] | 
316 nM |  | > 20000 nM | 12% | > 20000 nM | 25% | 25.1 nM |  | 39% | 126% | CCOC(=O)N1CCC2(CC(N3CCC(N(CC)C(=O)OC)CC3)C2)C1 (single isomer, unassigned) [2-39 Isomer 2] | 
501 nM |  | > 20000 nM | 32% | > 20000 nM | 9% | 63.1 nM |  | 39% | 110% | CCOC(=O)N1CCC2(CC(N3CCC(N(CC)C(=O)OCC)CC3)C2)C1 (single isomer, unassigned) [2-40 Isomer 2] | 
316 nM |  | > 20000 nM | 57% | > 20000 nM | 1% | 15.8 nM |  | 109% | 127% | CCOC(=O)N1CCC2(CC(N3CCC(N(C(=O)OC)C(C)C)CC3)C2)C1 (single isomer, unassigned) [2-41 Isomer 2] | 
1580 nM |  | > 20000 nM | 21% | > 20000 nM | 39% | 100 nM |  | 120% | 112% | CCOC(=O)N1CCC2(CC(N3CCC(N(CC(F)(F)F)C(=O)OC)CC3)C2)C1 (single isomer, unassigned) [2-42 Isomer 2] | 
398 nM |  | 501 nM | 29% | 1260 nM | 63% | 63.1 nM |  | 113% | 90% | CCOC(=O)N1CCC2(CC(N3CCC(N(C(=O)OC)C4COC4)CC3)C2)C1 (single isomer, unassigned) [2-47 Isomer 2] | 
> 20000 nM |  | > 20000 nM | 15% | > 20000 nM | 5% | 25.1 nM |  | 161% | 65% | CCOC(=O)N1CCC2(CC(N3CCC(N(CC)CCC#N)CC3)C2)C1 (single isomer, unassigned) [2-55 Isomer 2] | 
1000 nM |  | > 20000 nM | 11% | > 20000 nM | 23% | 39.8 nM |  | 40% | 107% | CCOC(=O)N1CCC2(CC(N3CCC(N(CC)OC)CC3)C2)C1 (single isomer, unassigned) [2-57 Isomer 2] | 
